Among the test systems are SK-MEL-2 melanoma; HCC-2998 colon; NCI/ADR-RES ovarian; HCT-15 colon; K-562 leukemia; CCRF-CEM leukemia; RPMI-8226 leukemia; SN12C renal; LOX IMVI melanoma; MOLT-4 leukemia.
Experiment in all cases: DTP human tumour cell line panel, 48 h

Several values for one entry are separate records, joined by “and”; a condition that tells them apart may be missing. Equal values may be shown once.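 Test compounds were applied to cells in 96-well plates for 48 hours at 5 doses. GI50 is the concentration that inhibits growth by half. The concentration for full growth arrest is given as TGI.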

As to `Cc1ncc(CCCN(C)C)cc1Nc1ncc2c(n1)-c1ccc(C(F)(F)F)cc1NC(=S)C2`, the GI50 was 1.08 µM in the assay on SK-MEL-2 melanoma; 0.0135 µM in the assay on HCC-2998 colon; 0.172 µM in the assay on NCI/ADR-RES ovarian; 0.0389 µM in the assay on HCT-15 colon; < 0.0169 µM in the assay with K-562 leukemia; < 0.0134 µM with CCRF-CEM leukemia. Also, the GI50 with RPMI-8226 leukemia is 0.0434 µM; with SN12C renal, 0.0952 µM; with LOX IMVI melanoma it was 0.0276 µM; in the assay with MOLT-4 leukemia, < 0.0156 µM. Also, the TGI with SK-MEL-2 melanoma was 6.99 µM; with HCC-2998 colon, 10.3 µM; in the assay on NCI/ADR-RES ovarian, > 67.7 µM; with HCT-15 colon, 15 µM; in the assay with K-562 leukemia, > 34 µM; with CCRF-CEM leukemia it was 10.4 µM. Also, the TGI with RPMI-8226 leukemia was found to be 21.1 µM; in the assay on SN12C renal it was 18.4 µM; in the assay on LOX IMVI melanoma, 15.1 µM; in the assay on MOLT-4 leukemia it was 16.6 µM.
As to `CC(=O)N[C@H]1CSSC[C@@H](C(N)=O)NC(=O)[C@H](C(C)C)NC(=O)[C@H](C)NC(=O)[C@H](Cc2cnc[nH]2)NC1=O`, the GI50 with SK-MEL-2 melanoma is > 100 µM; in the assay on HCC-2998 colon, > 100 µM; with NCI/ADR-RES ovarian it was > 100 µM; in the assay with HCT-15 colon, > 100 µM; with K-562 leukemia it was > 100 µM; in the assay with CCRF-CEM leukemia it was 29.1 µM. Moreover, the GI50 with RPMI-8226 leukemia, in the assay with SN12C renal, in the assay on LOX IMVI melanoma and with MOLT-4 leukemia was > 100 µM in each case. For the same compound, the TGI with SK-MEL-2 melanoma, with HCC-2998 colon, in the assay with NCI/ADR-RES ovarian, in the assay with HCT-15 colon, with K-562 leukemia and in the assay on CCRF-CEM leukemia was > 100 µM each time. Also, the TGI in the assay with RPMI-8226 leukemia, with SN12C renal, with LOX IMVI melanoma and in the assay with MOLT-4 leukemia was > 100 µM throughout.
As to `O=C1NC(=O)C(CC2CCCCCCCCCCC2=O)C(=O)N1` (stereo not given), the TGI in the assay on SK-MEL-2 melanoma, with HCC-2998 colon, in the assay on NCI/ADR-RES ovarian, in the assay with HCT-15 colon, in the assay on CCRF-CEM leukemia and in the assay on SN12C renal was > 100 µM in each case. The TGI in the assay on LOX IMVI melanoma and in the assay with MOLT-4 leukemia was > 100 µM in each case.
`O=c1cc(NC2CCN(CCCc3ccccc3)CC2)c2cc(Cl)ccc2o1`: the GI50 in the assay with SK-MEL-2 melanoma is 18.4 µM; in the assay on HCC-2998 colon it was 13 µM; in the assay with NCI/ADR-RES ovarian it was 15 µM; in the assay with HCT-15 colon it was 3.89 µM; with K-562 leukemia, 3.86 µM; in the assay with CCRF-CEM leukemia it was 18.2 µM. Moreover, the GI50 is 16.5 µM in the assay with RPMI-8226 leukemia, 13 µM in the assay with SN12C renal, 5.8 µM in the assay with LOX IMVI melanoma and 8.26 µM in the assay on MOLT-4 leukemia. Moreover, the TGI was found to be 33.1 µM with SK-MEL-2 melanoma; 27.3 µM in the assay on HCC-2998 colon; 30.4 µM in the assay on NCI/ADR-RES ovarian; 17.4 µM in the assay on HCT-15 colon; 20.5 µM in the assay with K-562 leukemia; 79.3 µM in the assay with CCRF-CEM leukemia. Moreover, the TGI was determined as 43.4 µM in the assay on RPMI-8226 leukemia, 28.2 µM in the assay with SN12C renal, 19.2 µM with LOX IMVI melanoma and 37.9 µM in the assay on MOLT-4 leukemia.
As for `Nc1nc(F)nc2c1ncn2C1OC(CO)C(O)C1O` (stereo not given), the TGI was > 100 µM in the assay on SK-MEL-2 melanoma; > 100 µM with HCC-2998 colon; > 55.5 µM and 46.6 µM in the assay on NCI/ADR-RES ovarian; > 100 µM in the assay on HCT-15 colon; > 100 µM in the assay on K-562 leukemia; > 77 µM in the assay with CCRF-CEM leukemia. Besides, the TGI is > 100 µM in the assay with RPMI-8226 leukemia; > 72.2 µM and 45.1 µM in the assay with SN12C renal; > 100 µM in the assay on LOX IMVI melanoma; > 100 µM in the assay on MOLT-4 leukemia. The GI50 in the assay with HCC-2998 colon was 5.09 µM; in the assay on HCT-15 colon, 56.7 µM; in the assay with CCRF-CEM leukemia it was 1.21 µM; in the assay on SN12C renal, 5.55 µM; in the assay with LOX IMVI melanoma, 19.9 µM.
With `C[C@H](O)C(=O)N1CCC(CCn2c(Sc3cc4c(cc3Br)OCO4)nc3c(N)ncnc32)CC1`, the GI50 is 4.63 µM in the assay on SK-MEL-2 melanoma; 0.867 µM with HCC-2998 colon; 13.9 µM with NCI/ADR-RES ovarian; 1.3 µM in the assay on HCT-15 colon; 0.472 µM in the assay with K-562 leukemia; 0.49 µM in the assay with CCRF-CEM leukemia. In addition, the GI50 in the assay on RPMI-8226 leukemia is 4.19 µM; with SN12C renal it was 0.725 µM; in the assay on LOX IMVI melanoma it was 0.596 µM; with MOLT-4 leukemia, 0.55 µM. Moreover, the concentration for total growth inhibition (TGI) with SK-MEL-2 melanoma is > 100 µM; in the assay on HCC-2998 colon it was > 43.3 µM; in the assay on NCI/ADR-RES ovarian, > 100 µM; in the assay on HCT-15 colon, > 100 µM; in the assay with K-562 leukemia, > 100 µM; in the assay on CCRF-CEM leukemia, > 100 µM. The TGI with RPMI-8226 leukemia was > 100 µM; with SN12C renal, > 100 µM; in the assay with LOX IMVI melanoma it was 6.9 µM; in the assay with MOLT-4 leukemia, 11.8 µM.
Regarding `ClCC[N+]12CC[N+](CCCl)(CC1)C2`, the TGI in the assay on SK-MEL-2 melanoma, with HCC-2998 colon, in the assay on NCI/ADR-RES ovarian, in the assay on HCT-15 colon, in the assay with K-562 leukemia and in the assay with CCRF-CEM leukemia was > 100 µM each time. For the same compound, the TGI in the assay on RPMI-8226 leukemia, with SN12C renal, with LOX IMVI melanoma and in the assay with MOLT-4 leukemia was > 100 µM in each case.
As for `CCOc1cc(C(C)(C)C)ccc1C1=N[C@@](C)(c2ccc(Cl)cc2)[C@@](C)(c2ccc(Cl)cc2)N1C(=O)N1CCN(CCCS(C)(=O)=O)CC1`, the GI50 was 9.14 µM in the assay with SK-MEL-2 melanoma; 2.51 µM in the assay on HCC-2998 colon; 4.97 µM in the assay on NCI/ADR-RES ovarian; 2.3 µM in the assay with HCT-15 colon; 3.71 µM in the assay with K-562 leukemia; 4.1 µM in the assay with CCRF-CEM leukemia. Further, the GI50 was 3.13 µM with RPMI-8226 leukemia, 3.84 µM with SN12C renal, 0.438 µM with LOX IMVI melanoma and 0.375 µM in the assay with MOLT-4 leukemia. Further, the TGI with SK-MEL-2 melanoma is 30 µM; with HCC-2998 colon it was 6.95 µM; in the assay on NCI/ADR-RES ovarian, 18.9 µM; in the assay with HCT-15 colon it was 6.01 µM; in the assay with K-562 leukemia, > 100 µM; in the assay on CCRF-CEM leukemia, > 100 µM. For the same compound, the TGI in the assay with RPMI-8226 leukemia is > 100 µM; in the assay on SN12C renal, 14.5 µM; in the assay with LOX IMVI melanoma it was 11 µM; in the assay with MOLT-4 leukemia it was > 100 µM.
As to `COc1ccc(/C=C/C(=O)C(CC2CCC2)C(=O)/C=C/c2ccc(OC)c(OC)c2)cc1OC`, the GI50 with SK-MEL-2 melanoma was 2.11 µM; with HCC-2998 colon, 1.85 µM; with NCI/ADR-RES ovarian, 2.58 µM; in the assay on HCT-15 colon it was 1.28 µM; in the assay on K-562 leukemia it was 2.15 µM; with CCRF-CEM leukemia, 2.05 µM. Further, the GI50 was 1.73 µM in the assay with RPMI-8226 leukemia, 1.93 µM in the assay with SN12C renal, 1.25 µM in the assay with LOX IMVI melanoma and 2.82 µM in the assay with MOLT-4 leukemia. In addition, the TGI with SK-MEL-2 melanoma is 4.7 µM; with HCC-2998 colon, 3.41 µM; in the assay with NCI/ADR-RES ovarian it was > 100 µM; in the assay with HCT-15 colon it was 3.9 µM; in the assay on K-562 leukemia it was > 100 µM; with CCRF-CEM leukemia it was > 100 µM. In addition, the TGI in the assay with RPMI-8226 leukemia stood at 6.4 µM; in the assay with SN12C renal, 4.55 µM; in the assay on LOX IMVI melanoma, 2.52 µM; with MOLT-4 leukemia, 8.95 µM.
Take `CCc1nc(C(N)=O)c(Nc2ccc(N3CCC(N4CCN(C)CC4)CC3)c(OC)c2)nc1NC1CCOCC1`: the GI50 with HCC-2998 colon is 8.08 µM and 1.4 µM and 8.55 µM; in the assay on NCI/ADR-RES ovarian, 4.33 µM and 3.75 µM and 5.19 µM; in the assay on HCT-15 colon, 1.68 µM and 0.38 µM and 1.41 µM; in the assay on CCRF-CEM leukemia, 3.76 µM and 0.901 µM and 7.12 µM; in the assay on SN12C renal, 0.545 µM and 0.247 µM and 0.491 µM; in the assay with LOX IMVI melanoma, 2.12 µM and 0.337 µM and 2.82 µM. In addition, the GI50 with MOLT-4 leukemia was 3.55 µM and 0.794 µM and 4.06 µM. The TGI in the assay with HCC-2998 colon is 22.2 µM and > 3.14 µM and 23.5 µM; in the assay with NCI/ADR-RES ovarian, 22.2 µM and > 10 µM and 26.8 µM; with HCT-15 colon it was 15.7 µM and > 10 µM and 16 µM; with K-562 leukemia, 33 µM and > 2.39 µM and 45.4 µM; with CCRF-CEM leukemia it was 30.1 µM and > 10 µM and 44.4 µM; with RPMI-8226 leukemia, 30.8 µM and > 2.71 µM and 36.4 µM. The TGI in the assay on SN12C renal was 20.2 µM and > 10 µM and 17.5 µM; in the assay on LOX IMVI melanoma, 17.6 µM and > 2.34 µM and 19.4 µM; in the assay on MOLT-4 leukemia, 21.5 µM and > 2.7 µM and 25.4 µM.
On to `CC1=C[C@H]2c3c(c(O)c(O)c4oc(-c5ccccc5)cc(=O)c34)[C@H](c3cc(O)c(O)c4oc(-c5ccccc5)cc(=O)c34)[C@H]2C(C)(C)C1`, for which the GI50 was 1.77 µM in the assay on SK-MEL-2 melanoma; 1.56 µM in the assay on HCC-2998 colon; 3.55 µM with NCI/ADR-RES ovarian; 1.82 µM in the assay with HCT-15 colon; 0.294 µM with K-562 leukemia; 0.67 µM with CCRF-CEM leukemia. The GI50 in the assay with SN12C renal was 1.09 µM; with LOX IMVI melanoma it was 0.395 µM; in the assay with MOLT-4 leukemia, 0.988 µM. The TGI with SK-MEL-2 melanoma is 9.61 µM; with HCC-2998 colon, 4.65 µM; in the assay on NCI/ADR-RES ovarian, 25.3 µM; with HCT-15 colon, 10.4 µM; with K-562 leukemia it was > 75 µM; in the assay with CCRF-CEM leukemia, > 75 µM. The TGI with SN12C renal is 7.31 µM; with LOX IMVI melanoma it was 1.33 µM; in the assay with MOLT-4 leukemia, > 75 µM.
In the case of `Cc1ccc(-c2nc3ccc(Cl)cc3c(=O)n2N2C(=O)CSC2c2ccccc2Cl)cc1` (stereo not given), the GI50 in the assay with HCC-2998 colon is > 100 µM; with NCI/ADR-RES ovarian, 8.87 µM; in the assay on HCT-15 colon, > 100 µM; in the assay with K-562 leukemia it was > 100 µM; in the assay with CCRF-CEM leukemia, > 100 µM; in the assay on RPMI-8226 leukemia it was > 100 µM. Also, the GI50 with SN12C renal is 11.8 µM; in the assay with LOX IMVI melanoma, 70.1 µM; in the assay with MOLT-4 leukemia, > 100 µM. The TGI with HCC-2998 colon, with NCI/ADR-RES ovarian, with HCT-15 colon, in the assay with K-562 leukemia, in the assay on CCRF-CEM leukemia and in the assay with RPMI-8226 leukemia was > 100 µM in each case. The TGI with SN12C renal, with LOX IMVI melanoma and in the assay on MOLT-4 leukemia was > 100 µM throughout.

(Values after PubChem BioAssay (NCI).)
